#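 Where inhibition never reached the appropriate level, the endpoint shown equals the highest concentration tested. Otherwise, values were interpolated linearly from a five-concentration, 48-hour dose response in 96-well plates. At the GI50, growth is halved. TGI marks complete inhibition of growth.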
# Tests used:
# Assay in all cases: NCI-60 cell line screen, 48 h
# RXF 393 renal = tested on: RXF 393 renal
# TK-10 renal = tested on: TK-10 renal
# MCF7 breast = tested on: MCF7 breast
# OVCAR-4 ovarian = tested on: OVCAR-4 ovarian
# HCT-15 colon = tested on: HCT-15 colon
# SK-MEL-5 melanoma = tested on: SK-MEL-5 melanoma
# NCI-H23 lung = tested on: NCI-H23 lung
# T-47D breast = tested on: T-47D breast
# MDA-MB-231 breast = tested on: MDA-MB-231 breast
# PC-3 prostate = tested on: PC-3 prostate
# ACHN renal = tested on: ACHN renal
# MOLT-4 leukemia = tested on: MOLT-4 leukemia
# A498 renal = tested on: A498 renal
# DU-145 prostate = tested on: DU-145 prostate
# HCT-116 colon = tested on: HCT-116 colon
# SNB-75 CNS = tested on: SNB-75 CNS
# UACC-257 melanoma = tested on: UACC-257 melanoma
# NCI-H226 lung = tested on: NCI-H226 lung
# COLO 205 colon = tested on: COLO 205 colon
# OVCAR-3 ovarian = tested on: OVCAR-3 ovarian
# U251 CNS = tested on: U251 CNS
# HCC-2998 colon = tested on: HCC-2998 colon
# A549 NSCLC = tested on: A549 NSCLC
# UO-31 renal = tested on: UO-31 renal
# NCI-H522 lung = tested on: NCI-H522 lung
# SF-539 CNS = tested on: SF-539 CNS
# SK-MEL-28 melanoma = tested on: SK-MEL-28 melanoma
# SN12C renal = tested on: SN12C renal
# KM12 colon = tested on: KM12 colon
# HS 578T breast = tested on: HS 578T breast
# EKVX NSCLC = tested on: EKVX NSCLC
# 786-0 renal = tested on: 786-0 renal
# K-562 leukemia = tested on: K-562 leukemia
# M14 melanoma = tested on: M14 melanoma
# NCI/ADR-RES ovarian = tested on: NCI/ADR-RES ovarian
# SNB-19 CNS = tested on: SNB-19 CNS
# UACC-62 melanoma = tested on: UACC-62 melanoma
# IGROV1 ovarian = tested on: IGROV1 ovarian
# MDA-MB-435 = tested on: MDA-MB-435
# SK-MEL-2 melanoma = tested on: SK-MEL-2 melanoma
# LOX IMVI melanoma = tested on: LOX IMVI melanoma
# HOP-62 NSCLC = tested on: HOP-62 NSCLC
# NCI-H460 lung = tested on: NCI-H460 lung
# HOP-92 NSCLC = tested on: HOP-92 NSCLC
# RPMI-8226 leukemia = tested on: RPMI-8226 leukemia
# SF-295 CNS = tested on: SF-295 CNS
# BT-549 breast = tested on: BT-549 breast
# MALME-3M melanoma = tested on: MALME-3M melanoma
# SK-OV-3 ovarian = tested on: SK-OV-3 ovarian
# SF-268 CNS = tested on: SF-268 CNS
# HT29 colon = tested on: HT29 colon
# CAKI-1 renal = tested on: CAKI-1 renal
# OVCAR-5 ovarian = tested on: OVCAR-5 ovarian
# OVCAR-8 ovarian = tested on: OVCAR-8 ovarian
# SW-620 colon = tested on: SW-620 colon
# CCRF-CEM leukemia = tested on: CCRF-CEM leukemia
smiles,measurement,setting,value
N#Cc1ccccc1C#C/C=C\C#Cc1cccs1,GI50,RXF 393 renal,14.9 µM
same,TGI,RXF 393 renal,48.1 µM
same,GI50,TK-10 renal,20.7 µM
same,TGI,TK-10 renal,62.5 µM
same,GI50,MCF7 breast,6.07 µM
same,TGI,MCF7 breast,45.9 µM
same,GI50,OVCAR-4 ovarian,34.9 µM
same,TGI,OVCAR-4 ovarian,> 100 µM
same,GI50,HCT-15 colon,14.5 µM
same,TGI,HCT-15 colon,83.1 µM
same,GI50,SK-MEL-5 melanoma,14.5 µM
same,TGI,SK-MEL-5 melanoma,39 µM
same,GI50,NCI-H23 lung,33.2 µM
same,TGI,NCI-H23 lung,> 100 µM
same,GI50,T-47D breast,12.6 µM
same,TGI,T-47D breast,> 100 µM
same,GI50,MDA-MB-231 breast,26.1 µM
same,TGI,MDA-MB-231 breast,> 100 µM
same,GI50,PC-3 prostate,28.6 µM
same,TGI,PC-3 prostate,> 100 µM
same,GI50,ACHN renal,32 µM
same,TGI,ACHN renal,> 100 µM
same,GI50,MOLT-4 leukemia,8.19 µM
same,TGI,MOLT-4 leukemia,> 100 µM
same,GI50,A498 renal,18.5 µM
same,TGI,A498 renal,54.3 µM
same,GI50,DU-145 prostate,19.7 µM
same,TGI,DU-145 prostate,77.3 µM
same,GI50,HCT-116 colon,11.7 µM
same,TGI,HCT-116 colon,46 µM
same,GI50,SNB-75 CNS,26.2 µM
same,TGI,SNB-75 CNS,> 100 µM
same,GI50,UACC-257 melanoma,32.5 µM
same,TGI,UACC-257 melanoma,> 100 µM
same,GI50,NCI-H226 lung,47 µM
same,TGI,NCI-H226 lung,> 100 µM
same,GI50,COLO 205 colon,14.3 µM
same,TGI,COLO 205 colon,32.2 µM
same,GI50,OVCAR-3 ovarian,14.1 µM
same,TGI,OVCAR-3 ovarian,34.2 µM
same,GI50,U251 CNS,16.4 µM
same,TGI,U251 CNS,67.1 µM
same,GI50,HCC-2998 colon,28.3 µM
same,TGI,HCC-2998 colon,> 100 µM
same,GI50,A549 NSCLC,25 µM
same,TGI,A549 NSCLC,> 100 µM
same,GI50,UO-31 renal,46.5 µM
same,TGI,UO-31 renal,> 100 µM
same,GI50,NCI-H522 lung,36.8 µM
same,TGI,NCI-H522 lung,> 100 µM
same,GI50,SF-539 CNS,14.4 µM
same,TGI,SF-539 CNS,34.1 µM
same,GI50,SK-MEL-28 melanoma,14.8 µM
same,TGI,SK-MEL-28 melanoma,> 100 µM
same,GI50,SN12C renal,33 µM
same,TGI,SN12C renal,> 100 µM
same,GI50,KM12 colon,3.93 µM
same,TGI,KM12 colon,16.8 µM
same,GI50,HS 578T breast,8.03 µM
same,TGI,HS 578T breast,53.7 µM
same,GI50,EKVX NSCLC,24.8 µM
same,TGI,EKVX NSCLC,> 100 µM
same,GI50,786-0 renal,29.4 µM
same,TGI,786-0 renal,84.1 µM
same,GI50,K-562 leukemia,6.46 µM
same,TGI,K-562 leukemia,> 100 µM
same,GI50,M14 melanoma,11.4 µM
same,TGI,M14 melanoma,56.5 µM
same,GI50,NCI/ADR-RES ovarian,25.4 µM
same,TGI,NCI/ADR-RES ovarian,> 100 µM
same,GI50,SNB-19 CNS,45.8 µM
same,TGI,SNB-19 CNS,> 100 µM
same,GI50,UACC-62 melanoma,12.3 µM
same,TGI,UACC-62 melanoma,> 100 µM
same,GI50,IGROV1 ovarian,42.7 µM
same,TGI,IGROV1 ovarian,> 100 µM
same,GI50,MDA-MB-435,2.11 µM
same,TGI,MDA-MB-435,4.35 µM
same,GI50,SK-MEL-2 melanoma,62.8 µM
same,TGI,SK-MEL-2 melanoma,> 100 µM
same,GI50,LOX IMVI melanoma,15.7 µM
same,TGI,LOX IMVI melanoma,92.4 µM
same,GI50,HOP-62 NSCLC,16.5 µM
same,TGI,HOP-62 NSCLC,61.4 µM
same,GI50,NCI-H460 lung,21.9 µM
same,TGI,NCI-H460 lung,75.8 µM
same,GI50,HOP-92 NSCLC,25.8 µM
same,TGI,HOP-92 NSCLC,> 100 µM
same,GI50,RPMI-8226 leukemia,11.1 µM
same,TGI,RPMI-8226 leukemia,51.2 µM
same,GI50,SF-295 CNS,13.8 µM
same,TGI,SF-295 CNS,31.9 µM
same,GI50,BT-549 breast,12.2 µM
same,TGI,BT-549 breast,94.8 µM
same,GI50,MALME-3M melanoma,19.5 µM
same,TGI,MALME-3M melanoma,48.1 µM
same,GI50,SK-OV-3 ovarian,28.9 µM
same,TGI,SK-OV-3 ovarian,> 100 µM
same,GI50,SF-268 CNS,19.1 µM
same,TGI,SF-268 CNS,55.7 µM
same,GI50,HT29 colon,11.8 µM
same,TGI,HT29 colon,> 100 µM
same,GI50,CAKI-1 renal,16 µM
same,TGI,CAKI-1 renal,78 µM
same,GI50,OVCAR-5 ovarian,70.7 µM
same,TGI,OVCAR-5 ovarian,> 100 µM
same,GI50,OVCAR-8 ovarian,30.3 µM
same,TGI,OVCAR-8 ovarian,> 100 µM
same,GI50,SW-620 colon,7.78 µM
same,TGI,SW-620 colon,> 100 µM
Nc1ncc2ccc3c(ccn3C3CC(O)C(CO)O3)c2n1 (stereo not given),GI50,RXF 393 renal,> 100 µM
same,TGI,RXF 393 renal,> 100 µM
same,GI50,MCF7 breast,87.2 µM
same,TGI,MCF7 breast,> 100 µM
same,GI50,OVCAR-4 ovarian,> 100 µM
same,TGI,OVCAR-4 ovarian,> 100 µM
same,GI50,HCT-15 colon,> 100 µM
same,TGI,HCT-15 colon,> 100 µM
same,GI50,SK-MEL-5 melanoma,> 100 µM
same,TGI,SK-MEL-5 melanoma,> 100 µM
same,GI50,NCI-H23 lung,> 100 µM
same,TGI,NCI-H23 lung,> 100 µM
same,GI50,T-47D breast,> 100 µM
same,TGI,T-47D breast,> 100 µM
same,GI50,MDA-MB-231 breast,> 100 µM
same,TGI,MDA-MB-231 breast,> 100 µM
same,GI50,PC-3 prostate,> 100 µM
same,TGI,PC-3 prostate,> 100 µM
same,GI50,A498 renal,18.3 µM
same,TGI,A498 renal,> 100 µM
same,GI50,DU-145 prostate,> 100 µM
same,TGI,DU-145 prostate,> 100 µM
same,GI50,HCT-116 colon,> 100 µM
same,TGI,HCT-116 colon,> 100 µM
same,GI50,SNB-75 CNS,42.4 µM
same,TGI,SNB-75 CNS,> 100 µM
same,GI50,UACC-257 melanoma,> 100 µM
same,TGI,UACC-257 melanoma,> 100 µM
same,GI50,NCI-H226 lung,> 100 µM
same,TGI,NCI-H226 lung,> 100 µM
same,GI50,COLO 205 colon,> 100 µM
same,TGI,COLO 205 colon,> 100 µM
same,GI50,OVCAR-3 ovarian,> 100 µM
same,TGI,OVCAR-3 ovarian,> 100 µM
same,GI50,U251 CNS,> 100 µM
same,TGI,U251 CNS,> 100 µM
same,GI50,HCC-2998 colon,> 100 µM
same,TGI,HCC-2998 colon,> 100 µM
same,GI50,CCRF-CEM leukemia,> 100 µM
same,TGI,CCRF-CEM leukemia,> 100 µM
same,GI50,A549 NSCLC,> 100 µM
same,TGI,A549 NSCLC,> 100 µM
same,GI50,UO-31 renal,> 100 µM
same,TGI,UO-31 renal,> 100 µM
same,GI50,NCI-H522 lung,> 100 µM
same,TGI,NCI-H522 lung,> 100 µM
same,GI50,SF-539 CNS,> 100 µM
same,TGI,SF-539 CNS,> 100 µM
same,GI50,SK-MEL-28 melanoma,> 100 µM
same,TGI,SK-MEL-28 melanoma,> 100 µM
same,GI50,SN12C renal,> 100 µM
same,TGI,SN12C renal,> 100 µM
same,GI50,HS 578T breast,> 100 µM
same,TGI,HS 578T breast,> 100 µM
same,GI50,EKVX NSCLC,> 100 µM
same,TGI,EKVX NSCLC,> 100 µM
same,GI50,786-0 renal,> 100 µM
same,TGI,786-0 renal,> 100 µM
same,GI50,M14 melanoma,> 100 µM
same,TGI,M14 melanoma,> 100 µM
same,GI50,NCI/ADR-RES ovarian,> 100 µM
same,TGI,NCI/ADR-RES ovarian,> 100 µM
same,GI50,SNB-19 CNS,> 100 µM
same,TGI,SNB-19 CNS,> 100 µM
same,GI50,UACC-62 melanoma,> 100 µM
same,TGI,UACC-62 melanoma,> 100 µM
same,GI50,IGROV1 ovarian,> 100 µM
same,TGI,IGROV1 ovarian,> 100 µM
same,GI50,MDA-MB-435,> 100 µM
same,TGI,MDA-MB-435,> 100 µM
same,GI50,SK-MEL-2 melanoma,> 100 µM
same,TGI,SK-MEL-2 melanoma,> 100 µM
same,GI50,LOX IMVI melanoma,> 100 µM
same,TGI,LOX IMVI melanoma,> 100 µM
same,GI50,HOP-62 NSCLC,> 100 µM
same,TGI,HOP-62 NSCLC,> 100 µM
same,GI50,NCI-H460 lung,> 100 µM
same,TGI,NCI-H460 lung,> 100 µM
same,GI50,HOP-92 NSCLC,> 100 µM
same,TGI,HOP-92 NSCLC,> 100 µM
same,GI50,RPMI-8226 leukemia,> 100 µM
same,TGI,RPMI-8226 leukemia,> 100 µM
same,GI50,SF-295 CNS,> 100 µM
same,TGI,SF-295 CNS,> 100 µM
same,GI50,BT-549 breast,> 100 µM
same,TGI,BT-549 breast,> 100 µM
same,GI50,SK-OV-3 ovarian,> 100 µM
same,TGI,SK-OV-3 ovarian,> 100 µM
same,GI50,SF-268 CNS,> 100 µM
same,TGI,SF-268 CNS,> 100 µM
same,GI50,HT29 colon,> 100 µM
same,TGI,HT29 colon,> 100 µM
same,GI50,CAKI-1 renal,> 100 µM
same,TGI,CAKI-1 renal,> 100 µM
same,GI50,OVCAR-5 ovarian,> 100 µM
same,TGI,OVCAR-5 ovarian,> 100 µM
same,GI50,OVCAR-8 ovarian,> 100 µM
same,TGI,OVCAR-8 ovarian,> 100 µM
same,GI50,SW-620 colon,> 100 µM
same,TGI,SW-620 colon,> 100 µM

# From PubChem BioAssay (NCI)
